Test results taken from patent US20220175856A1, “UNRAVELING RECEPTOR-METABOLITE INTERACTIONS IN THE HUMAN MICROBIOME” (The Rockefeller University, priority 2019, published 2022).
Entries after “also recorded” stand apart in the source; their conditions may differ. Like-named read-outs stand apart in the source and are kept apart here. Each block holds one compound with its values, some of them ahead of it.

Experiments:
GPR109B = GPR109B (Homo sapiens, UniProt P49019); experiment: cell-based
Excerpt: (§1) Individual bacteria from the SIHUMI consortium were fermented under anaerobic conditions in 20 L culture vessels, along with a media control containing no bacteria (FIG. 1). After 10 days, the extracellular metabolites were extracted and the crude mixture was partitioned into metabolite-rich fractions using reversed phased flash chromatography. The pre-fractionation process simplifies each fraction, thereby improving the signal in the primary screen and facilitating the downstream isolation of bioactive compounds. The fraction library was screened for agonist activity against individual GPCRs using a luminescence-based β-arrestin recruitment assay.
(§2) Compound plates were shipped on dry ice to Eurofins DiscoverX and the gperMAX and orphanMAX panels were run on all 80 samples in singleton.

[1] = target: T1, urotensin 2 receptor (UTR2) (Homo sapiens, UniProt Q9UKP6); experiment: β-arrestin recruitment GPCR agonist assay (PathHunter), UTR2; assay type: cell-based; conditions: for agonist activity at UTR2: result in words
T1 sequence (Q9UKP6 1-389): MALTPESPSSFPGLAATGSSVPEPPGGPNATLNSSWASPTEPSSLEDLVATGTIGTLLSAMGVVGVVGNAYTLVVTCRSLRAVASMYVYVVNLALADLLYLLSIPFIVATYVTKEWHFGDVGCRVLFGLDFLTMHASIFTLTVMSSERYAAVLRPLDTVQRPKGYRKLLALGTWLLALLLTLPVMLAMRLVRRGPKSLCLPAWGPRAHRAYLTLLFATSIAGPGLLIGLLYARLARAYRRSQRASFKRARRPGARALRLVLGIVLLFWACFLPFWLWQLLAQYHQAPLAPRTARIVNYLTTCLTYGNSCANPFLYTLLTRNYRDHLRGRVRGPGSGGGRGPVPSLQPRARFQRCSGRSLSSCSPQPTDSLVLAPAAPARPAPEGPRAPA

[2] = target: brain angiogenesis factor 1 (BAI1) (Homo sapiens, UniProt O14514); experiment: β-arrestin recruitment GPCR agonist assay (PathHunter), BAI1; assay type: cell-based
[3] = target: T2, NMU1R (neuromedin receptor 1) (Homo sapiens, UniProt Q9HB89); experiment: β-arrestin recruitment GPCR agonist assay (PathHunter), NMU1R; assay type: cell-based; conditions: for agonist activity at NMU1R: result in words
T2 sequence (Q9HB89 1-426): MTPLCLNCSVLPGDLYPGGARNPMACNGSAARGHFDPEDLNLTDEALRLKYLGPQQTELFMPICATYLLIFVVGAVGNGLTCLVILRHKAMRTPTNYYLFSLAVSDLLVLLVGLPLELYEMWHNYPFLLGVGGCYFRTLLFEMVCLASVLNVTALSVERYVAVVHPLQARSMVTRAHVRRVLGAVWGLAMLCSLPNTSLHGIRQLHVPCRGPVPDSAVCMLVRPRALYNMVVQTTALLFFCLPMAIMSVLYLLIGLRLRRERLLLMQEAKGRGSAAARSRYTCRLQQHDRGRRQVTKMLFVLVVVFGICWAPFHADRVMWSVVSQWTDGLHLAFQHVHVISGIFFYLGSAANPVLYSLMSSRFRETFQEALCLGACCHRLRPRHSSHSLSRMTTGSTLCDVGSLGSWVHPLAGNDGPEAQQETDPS

GPR151 = target: T3, GPR151 (Homo sapiens, UniProt Q8TDV0); experiment: β-arrestin recruitment GPCR agonist assay (PathHunter), GPR151; assay type: cell-based; conditions: Table 1, GPCR GPR151 (Q8TDV0)
T3 sequence (Q8TDV0 1-419): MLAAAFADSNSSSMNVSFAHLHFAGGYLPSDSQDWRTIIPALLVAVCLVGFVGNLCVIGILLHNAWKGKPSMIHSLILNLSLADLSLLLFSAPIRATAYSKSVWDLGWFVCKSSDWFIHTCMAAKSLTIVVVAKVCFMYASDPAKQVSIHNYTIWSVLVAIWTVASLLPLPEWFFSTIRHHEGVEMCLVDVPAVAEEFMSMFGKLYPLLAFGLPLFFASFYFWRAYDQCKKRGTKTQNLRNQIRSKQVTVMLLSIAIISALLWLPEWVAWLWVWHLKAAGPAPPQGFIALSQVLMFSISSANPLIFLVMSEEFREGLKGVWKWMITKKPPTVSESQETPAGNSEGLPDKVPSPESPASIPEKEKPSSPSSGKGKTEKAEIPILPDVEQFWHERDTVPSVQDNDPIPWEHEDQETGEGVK

HRH4 = HRH4 (Homo sapiens, UniProt Q9H3N8); experiment: β-arrestin recruitment GPCR agonist assay (PathHunter), HRH4; assay type: cell-based; conditions: result in words
[4] = tested on: histamine receptor (HRH) family; experiment: β-arrestin recruitment GPCR agonist assay (PathHunter), histamine receptor family; assay type: cell-based, human; conditions: synthetic polyamines; result in words
[5] = tested on: serotonin receptors (HTRs); experiment: β-arrestin recruitment GPCR agonist assay (PathHunter), serotonin receptors; assay type: cell-based, human; conditions: result in words
DRD2 = experiment: β-arrestin recruitment GPCR agonist assay (PathHunter), DRD2; assay type: cell-based, human; conditions: synthetic standard; result in words
Excerpt: as §1, §2

DRD3 = DRD3 (Homo sapiens, UniProt P35462); experiment: β-arrestin recruitment GPCR agonist assay (PathHunter), DRD3; assay type: cell-based; conditions: synthetic standard; result in words
[6] = Table 1, GPCR UTR2 (Q9UKP6), read-out: EC50 (μM), UTR2

Chain of brain angiogenesis factor 1 (BAI1) (O14514 31-1584): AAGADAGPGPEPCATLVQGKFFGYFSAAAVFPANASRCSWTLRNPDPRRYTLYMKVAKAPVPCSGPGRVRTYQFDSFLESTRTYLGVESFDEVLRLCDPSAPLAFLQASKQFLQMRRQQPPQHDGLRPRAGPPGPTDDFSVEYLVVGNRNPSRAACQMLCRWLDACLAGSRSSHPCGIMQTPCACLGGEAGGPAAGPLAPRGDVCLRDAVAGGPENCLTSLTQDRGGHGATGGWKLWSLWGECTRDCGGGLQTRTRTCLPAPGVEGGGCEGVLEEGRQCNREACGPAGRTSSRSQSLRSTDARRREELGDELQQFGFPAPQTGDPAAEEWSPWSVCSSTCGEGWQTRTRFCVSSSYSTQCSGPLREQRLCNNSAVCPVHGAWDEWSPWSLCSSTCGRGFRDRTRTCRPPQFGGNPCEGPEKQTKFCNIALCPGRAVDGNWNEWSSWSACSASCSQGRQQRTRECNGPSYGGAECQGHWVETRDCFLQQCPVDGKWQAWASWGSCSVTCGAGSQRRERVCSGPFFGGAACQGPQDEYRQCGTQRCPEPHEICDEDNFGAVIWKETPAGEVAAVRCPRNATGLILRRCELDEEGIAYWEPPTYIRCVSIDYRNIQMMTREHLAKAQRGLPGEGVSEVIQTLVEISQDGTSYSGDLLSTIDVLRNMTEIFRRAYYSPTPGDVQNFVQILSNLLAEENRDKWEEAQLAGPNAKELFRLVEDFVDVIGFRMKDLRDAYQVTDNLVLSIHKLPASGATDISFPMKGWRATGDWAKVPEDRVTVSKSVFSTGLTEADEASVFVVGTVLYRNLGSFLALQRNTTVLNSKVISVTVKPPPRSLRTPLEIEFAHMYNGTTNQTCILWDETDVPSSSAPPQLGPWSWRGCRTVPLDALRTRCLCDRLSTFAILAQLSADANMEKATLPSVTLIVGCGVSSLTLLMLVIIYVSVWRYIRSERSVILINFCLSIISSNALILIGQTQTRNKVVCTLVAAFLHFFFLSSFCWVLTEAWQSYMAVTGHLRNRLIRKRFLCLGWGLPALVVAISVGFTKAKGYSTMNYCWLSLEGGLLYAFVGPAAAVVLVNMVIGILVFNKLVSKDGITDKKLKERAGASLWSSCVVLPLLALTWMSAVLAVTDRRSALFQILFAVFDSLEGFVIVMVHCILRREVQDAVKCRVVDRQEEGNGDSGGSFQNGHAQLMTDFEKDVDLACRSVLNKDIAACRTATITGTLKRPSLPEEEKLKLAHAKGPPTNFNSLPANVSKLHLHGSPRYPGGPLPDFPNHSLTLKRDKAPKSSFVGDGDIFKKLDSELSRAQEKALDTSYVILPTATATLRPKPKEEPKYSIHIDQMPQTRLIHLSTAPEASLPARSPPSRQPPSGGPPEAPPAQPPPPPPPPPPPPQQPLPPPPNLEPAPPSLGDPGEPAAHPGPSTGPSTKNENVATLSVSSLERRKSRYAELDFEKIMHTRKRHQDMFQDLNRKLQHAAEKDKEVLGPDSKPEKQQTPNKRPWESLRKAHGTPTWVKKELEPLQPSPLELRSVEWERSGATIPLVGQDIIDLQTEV
Chain of GPR109B (P49019 whole entry): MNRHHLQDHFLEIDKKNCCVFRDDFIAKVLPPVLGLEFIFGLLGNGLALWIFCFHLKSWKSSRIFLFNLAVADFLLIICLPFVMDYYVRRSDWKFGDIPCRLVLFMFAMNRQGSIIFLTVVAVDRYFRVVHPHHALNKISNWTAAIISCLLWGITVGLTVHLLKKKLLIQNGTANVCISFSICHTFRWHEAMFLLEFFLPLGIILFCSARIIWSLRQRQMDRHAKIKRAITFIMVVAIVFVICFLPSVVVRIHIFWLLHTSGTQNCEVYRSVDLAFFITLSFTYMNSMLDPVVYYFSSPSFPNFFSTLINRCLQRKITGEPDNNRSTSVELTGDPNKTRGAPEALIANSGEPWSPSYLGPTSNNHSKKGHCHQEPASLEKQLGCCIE
Chain of DRD3 (P35462 whole entry): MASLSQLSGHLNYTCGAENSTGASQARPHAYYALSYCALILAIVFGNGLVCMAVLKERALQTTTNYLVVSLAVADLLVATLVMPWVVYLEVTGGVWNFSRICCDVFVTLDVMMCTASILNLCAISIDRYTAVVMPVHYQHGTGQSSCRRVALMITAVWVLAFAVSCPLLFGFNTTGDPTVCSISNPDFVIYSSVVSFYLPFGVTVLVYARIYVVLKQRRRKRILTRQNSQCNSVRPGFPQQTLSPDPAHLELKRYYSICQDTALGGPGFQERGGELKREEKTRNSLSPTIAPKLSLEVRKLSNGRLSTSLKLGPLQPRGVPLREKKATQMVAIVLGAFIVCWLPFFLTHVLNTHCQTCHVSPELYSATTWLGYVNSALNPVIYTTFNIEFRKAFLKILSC

Compound: O=C(O)C=Cc1ccc(O)cc1 [4-hydroxycinnamic acid]
EC50 (GPR109B): 208 µM

Compound: N=C(N)NCCCCN [Agmatine, agmatine, reference compound]
agonism / activation of HRH4 (HRH4): selectively agonized HRH4 but to a lesser extent than cadaverine

Compound: NCCCCN [putrescine, reference compound]
agonism / activation of HRH4 (HRH4): selectively agonized HRH4 but to a lesser extent than cadaverine

Compound: NCCCCNCCCN [spermidine]
HRH activity across the entire receptor family [4]: no HRH activity across the entire receptor family

Compound: NCCc1c[nH]c2ccccc12 [tryptamine]
agonism of serotonin receptors (HTRs) [5]: can modulate serotonin receptors

Compound: NCCc1ccc(O)cc1 [tyramine]
agonism of DRD2 (DRD2): agonism of DRD2 and DRD3 was validated | agonism of DRD3 (DRD3): agonism of DRD2 and DRD3 was validated

Second part, led by results:

EC50 [1, 6]: 52 µM | EC50 ([2]; Table 1, GPCR BAI1 (O14514)): 3.2 µM
Compound: CCCCCCC1CC1CCCCCCCC(=O)O (stereo not drawn) [9,10-methylenehexadecanoic acid]
agonism of BAI1 ([2]; result in words): agonized BAIL; also recorded: BAIl-active

EC50 [1, 6]: 49 µM | EC50 ([1]; synthetic and natural compound, read-out: EC50, agonism of UTR2 (converted)): 202 µM | EC50 ([3]; Table 1, GPCR NMU1R (Q9HB89), read-out: EC50 (μM), NMU1R): 29 µM | agonist activity at NMU1R [3]: NMU1R-active | EC50 ([3]; synthetic and natural compound, read-out: EC50, agonism of NMU1R (converted)): 132 µM | EC50 (GPR151): 49 µM
Compound: CCC(C)CCCCCCCCCCC(=O)O (stereo not drawn) [12-methylmyristic acid, 12-methyltetradecanoic acid]

EC50 (GPR151): 44 µM
Compound: CC(C)CCCCCCCCCCCC(=O)O [13-methylmyristic acid, 13-methyltetradecanoic acid]

EC50 (GPR151): 40 µM
Compound: CCC(C)CCCCCCCCCCCCC(=O)O (stereo not drawn) [14-methylpalmitic acid]

agonist activity at UTR2 [1]: minimal agonist activity | agonist activity at NMU1R [3]: minimal agonist activity
Compound: CCC(C)CCCCCCCCCCCCC(=O)O (stereo not drawn) [aiC17:0, reference compound]

agonism / activation of HRH4 (HRH4; listed as Cadaverine): HRH4 agonist
Compound: NCCCCCN [cadaverine]
agonism / activation of HRH4 (HRH4): major metabolite responsible for HRH4 activation; also recorded: HRH4 agonist

agonist activity at UTR2 [1]: minimal agonist activity | agonist activity at NMU1R [3]: minimal agonist activity
Compound: CC(C)CCCCCCCCCCCC(=O)O [iC15:0, reference compound]
